{"source": "patent US6177475A", "about": "“Methods of using integrin modulators for treatment of inflammation” (priority 1997, dated 2001)", "key": {"[1]": {"tested_on": "VLA-4 (Jurkat cells, VCAM-1)", "test": "VLA-4-dependent adhesion of Jurkat cells to VCAM-1", "assay_type": "cell-based", "details": "Homo sapiens, 1 h, 37° C.", "protocol": "Microtiter plates were coated with ligands of the integrin VLA-4, i.e., recombinant human VCAM-1 (500 nanograms per well) or the fragment of connective segment of human fibronectin (CS-1), covalently attached to ovalbumin (5 micrograms per well) by overnight incubation (4° C.) with solutions of the proteins in phosphate-buffered saline (PBS). The plates were blocked with 1% bovine serum albumin (BSA) in Hanks' buffered salt solution (HBSS-BSA). The cells (Jurkat or human melanoma MV3) were labeled with the fluorescent dye 5-chloromethylfluorescein diacetate (CMFDA) and introduced into the wells of the plates (10^5 cells per well) together with varying amounts of Ajoene. After incubation at 37° C. for 1 h, the unbound cells were removed by aspiration and the wells washed four times with HBSS-BSA. Thereafter, the bound cells were lysed with 0.5% Triton X-100, and the fluorescence was measured using a Cytofluor 2300 plate reader. The number of adherent cells was calculated from a standard dilution curve of Triton X-100 lysates of the CMFDA-labeled cells."}, "LFA-1 (ICAM-1)": {"tested_on": "LFA-1 (ICAM-1)", "test": "Adhesion of TPA-activated Jurkat cells to SVT2/ICAM-1 monolayers", "assay_type": "cell-based", "details": "Homo sapiens, 0.75 h, SVT2/ICAM-1, TPA 125 ng/ml, 45 min", "protocol": "(§1) SVT2 cells transfected with human ICAM-1 or VCAM-1 (SVT2/ICAM-1 and […], respectively) were plated into 96-well plates and cultured overnight. […] The labeled Jurkat cells were washed three times and resuspended at a density of 4×10^6 cells/ml in complete RPMI medium. Serial dilutions of Ajoene were prepared in complete RPMI medium. Aliquots of the cells (0.5 ml) were then mixed with an equal volume of Ajoene dilutions (1:1 v/v), and the mixtures incubated at 37° C. for 30 min. Thereafter, Ajoene-incubated cells were added in duplicate to SVT2/ICAM-1 and SVT2/VCAM-1 monolayers, and TPA was introduced into each well to the final concentration of 125 ng/ml. The plates were incubated at 37° C. for 45 min, after which the non-adherent cells were removed by washing with warm complete RPMI medium. The bound labeled cells were lysed by adding 1% Triton X-100 solution in 0.1 N HCl. The lysates were assayed in a gamma counter to determine the percentage of bound cells. […] Thus, coculturing of Jurkat cells with SVT2/ICAM-1 and SVT2/VCAM-1 cells makes it possible to assess, respectively, the function of IFA-1 and VLA-4 under identical conditions. In the absence of TPA, 10 and 20% of the added Jurkat cells adhered to SVT2/ICAM-1 and SVT2/VCAM-1 cells, respectively. […]"}, "VLA-4 (VCAM-1)": {"tested_on": "VLA-4 (VCAM-1)", "test": "Adhesion of TPA-activated Jurkat cells to SVT2/VCAM-1 monolayers", "assay_type": "cell-based", "details": "Homo sapiens, 0.75 h, SVT2/VCAM-1, TPA 125 ng/ml, 45 min", "protocol": "as §1"}, "[2]": {"tested_on": "111In-labeled neutrophils", "test": "Neutrophil recruitment to inflamed skin", "assay_type": "in vivo, rat", "details": "50 mg/kg i.v.; for Accumulation of 111In-labeled Neutrophils (mean ± SEM): 2 h", "from_the_text": "Chemotactic factors (e.g., C5adesArg) and cytokines, such as tumor necrosis factor α (TNF) or interferon gamma (IFN), induce rapid cutaneous inflammatory reactions, when injected intradermally. These inflammatory reactions are characterized by integrin-mediated migration of ^51 Cr-labeled monocytes and ^111 In-labeled neutrophils. The mechanisms of leukocyte recruitment to the inflammatory loci differ, however, in that chemotactic factors act primarily on leukocytes (by upregulating integrins), whereas TNF and IFN activate endothelial cells (which results, inter alia, in rapid expression of integrin ligands, such as ICAM-1 and VCAM-1).\nAgents used for the induction of the inflammation included rat IFN, recombinant mouse TNF (Genentech, South San Francisco, Calif.), and Zymozan-activated serum (ZAS). ZAS, a source of C5adesArg, was generated by activating complement in normal rat serum with 5 mg/ml of Zymozan A (Sigma Chemical Company, St. Louis, Mo.) at 37° C. for 60 min, after which the zymozan was removed.\nRat monocytes and neutrophils were isolated and labeled as described in Example 6, supra. Male Lewis rats were administered intravenously with 50 mg/kg Ajoene (treatment group) or its vehicle (control), followed within 2-3 min by infusion of the labeled cells. Immediately afterwards, the skin on the back of all animals was shaved and the inflammatory stimuli and the diluent control were injected intradermally at several sites of the skin of each animal. Two hours later, 1 ml of blood was taken from each rat, and the animals were sacrificed. The dorsal skin, including the area of dermal inflammatory reactions, was removed and frozen, and the injected skin sites were punched out with a 12-mm punch and counted in a gamma spectrometer (model 1280, LXB Instruments)."}, "[3]": {"tested_on": "MOLT-4 cells / syncytiotrophoblasts", "test": "Adhesion of uninfected MOLT-4 clone 8 cells to syncytiotrophoblasts", "assay_type": "cell-based, human", "from_the_text": "Human fetal placental epithelial cells, known as syncytiotrophoblasts, were organized in a monolayer and exposed to HIV-infected lymphocytic cells and, as a negative control, to uninfected cells of the same type. This experimental system, closely simulating the actual conditions under which syncytiotrophoblasts would be exposed to HIV-infected cells in vivo, was used to assess integrin-modulating effects of Ajoene.\n(§2) MOLT-4 clone 8 cells were labeled with calcein-AM, pretreated with different concentrations of Ajoene (0-200 micromoles per liter) and incubated with cultured term syncytiotrophoblast cells at 37° C. for one hour in the presence of Ajoene. Adhesion was measured directly as fluorescence units after background correction. Controls included measuring adhesion in the presence of the appropriate carrier solvent."}, "[4]": {"tested_on": "MOLT-4 cells and syncytiotrophoblasts", "assay_type": "cell-based, human", "protocol": "as §2\nIn order to assess the ability of Ajoene to inhibit lymphocyte-mediated HIV infection of syncytiotrophoblasts, HIV-1LBi -infected MOLT-4 cells were added to adherent cultures of uninfected syncytiotrophoblasts in the presence and absence of Ajoene. Various additional control conditions were also established. First, some wells received filtered (0.45 micrometer) supernatant of cell-free HIV from infected cell cultures. Yet other negative controls included syncytiotrophoblasts cultured alone and syncytiotrophoblasts cultured with uninfected MOLT-4 cells. After 24 hours, the cocultures were washed to removed unbound lymphocytes, fixed, permeabilized, stained for viral core antigens (p24 and p55), and viewed under a fluorescence microscope."}}}
{"smiles": "C=CCSSC=CC[S+]([O-])CC=C", "note": "(centres unmarked) [Ajoene, 4,5,9-trithiadodeca-1,6,11-triene-9-oxide]", "values": [{"measurement": "IC50", "setting": "[1]", "result": 250, "unit": "µM"}, {"measurement": "IC50", "setting": "LFA-1 (ICAM-1)", "result": 10, "unit": "µM"}, {"measurement": "IC50", "setting": "VLA-4 (VCAM-1)", "result": "~20", "unit": "µM"}, {"measurement": "Accumulation of 111In-labeled Neutrophils (mean ± SEM)", "setting": "[2]; 10 ng TNF, P < 0.006", "result": "1,289 cpm per inflammatory locus"}, {"measurement": "inhibition of neutrophil migration to loci of acute cutaneous inflammation", "setting": "[2]", "result": "30-40%"}, {"measurement": "Accumulation of 111In-labeled Neutrophils (mean ± SEM)", "setting": "[2]; 25% ZAS, P < 0.001", "result": "5,558 cpm per inflammatory locus"}, {"measurement": "Accumulation of 111In-labeled Neutrophils (mean ± SEM)", "setting": "[2]; 50% ZAS, P < 0.001", "result": "7,926 cpm per inflammatory locus"}, {"measurement": "Accumulation of 111In-labeled Neutrophils (mean ± SEM)", "setting": "[2]; 300 U IFN, P < 0.060", "result": "160 cpm per inflammatory locus"}, {"measurement": "Accumulation of 111In-labeled Neutrophils (mean ± SEM)", "setting": "[2]; diluent control stimulus, N.S.", "result": "53 cpm per inflammatory locus"}, {"measurement": "inhibition of adhesion of MOLT-4 cells to syncytiotrophoblasts", "setting": "[3]; 200 micromoles per liter", "result": 100, "unit": "%"}, {"measurement": "IC50", "setting": "[3]; Homo sapiens, MOLT-4, 1 hour, 37° C., cells not infected with HIV", "result": 60, "unit": "µM"}, {"measurement": "toxic effects to the cells", "setting": "[4]; HIV infection assay (lymphocyte-mediated), 200 micromoles per liter", "result": "without toxic effects to the cells"}, {"measurement": "toxic effects on cells", "setting": "[4]; adhesion assay, up to 200 micromoles per liter", "result": "Without any toxic effects on cells"}, {"measurement": "toxic effects in cell-free HIV infection", "setting": "[4]; cell-free HIV, 200 micromoles per liter and lower concentrations tested", "result": "without toxic effects"}]}
